# Test results as given in ChEMBL document CHEMBL1201862, “PubChem BioAssay data set” (2004).
# Where a name gives a salt, the structure may show the parent alone. Calls of active or inactive are those of the source.
# Assays:
# [1] = Luminescence Cell-Based Dose Retest to Confirm Inhibitors of Cancer Stem Cells. [Related pubchem assays (depositor defined):AID2717, AID2721]; format: functional; conditions: Homo sapiens
# [2] = molecular target: Intestinal-type alkaline phosphatase (Homo sapiens, UniProt P09923); assay: Dose Response confirmation of uHTS hits from a small molecule inhibitors of human intestinal alkaline phosphatase via a luminescent assay. [Related pubchem assays (depositor defined):AID2544, AID2574]; format: functional
# [3] = molecular target: Hexokinase (Trypanosoma brucei, UniProt Q38C41); assay: Confirmation assay for inhibitors of Trypanosoma brucei hexokinase 1-Analogue-first series. [Related pubchem assays (depositor defined):AID1430, AID1632, AID2516, AID2560, AID2579, AID2600, AID449725, AID492951]; format: functional
# [4] = molecular target: T1, Tyrosine-protein phosphatase non-receptor type 7 (Homo sapiens, UniProt P35236); format: functional
# T1 sequence (P35236 whole entry): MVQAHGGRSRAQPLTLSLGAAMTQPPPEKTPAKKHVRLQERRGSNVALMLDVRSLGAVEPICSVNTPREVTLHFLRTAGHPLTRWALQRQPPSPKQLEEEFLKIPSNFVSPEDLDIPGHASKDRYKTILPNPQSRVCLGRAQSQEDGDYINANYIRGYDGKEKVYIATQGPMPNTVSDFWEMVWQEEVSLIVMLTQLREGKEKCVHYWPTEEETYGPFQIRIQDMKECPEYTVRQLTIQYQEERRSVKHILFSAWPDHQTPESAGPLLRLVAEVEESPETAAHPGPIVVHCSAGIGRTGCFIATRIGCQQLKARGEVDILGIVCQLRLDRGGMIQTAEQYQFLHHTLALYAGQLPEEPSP
# [5] = molecular target: Glyceraldehyde-3-phosphate dehydrogenase (Homo sapiens, UniProt P04406)
# [6] = molecular target: T2, Dual specificity protein phosphatase 6 (Rattus norvegicus, UniProt Q64346)
# T2 sequence (Q64346 whole entry): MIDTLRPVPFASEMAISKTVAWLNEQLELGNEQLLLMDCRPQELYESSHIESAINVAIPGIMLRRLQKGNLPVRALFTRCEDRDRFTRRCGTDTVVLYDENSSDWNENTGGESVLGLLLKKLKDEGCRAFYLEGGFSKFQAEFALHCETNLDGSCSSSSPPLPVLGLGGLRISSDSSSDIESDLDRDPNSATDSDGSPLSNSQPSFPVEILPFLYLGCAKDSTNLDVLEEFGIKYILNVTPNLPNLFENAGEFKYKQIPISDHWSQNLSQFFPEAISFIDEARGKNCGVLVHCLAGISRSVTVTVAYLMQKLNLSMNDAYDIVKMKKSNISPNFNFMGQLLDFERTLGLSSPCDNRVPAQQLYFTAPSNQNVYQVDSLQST
# [7] = molecular target: T2, Dual specificity protein phosphatase 6; format: functional
# [8] = Luminescence Cell-Based Dose Confirmation HTS to Identify Activators of 5'UTR Stem-Loop Driven Alpha-Synuclein mRNA Translation in H4 Neuroglioblastoma Cells. [Related pubchem assays: 1829 (Project Summary), 1814 (Primary HTS)]; format: functional
# [9] = Luminescence Cell-Based Dose Response HTS to Identify Activators of Luciferase Translation or Activity in H4 […] Cells. [Related pubchem assays: 1829 (Project Summary), 1814 (Primary HTS)]; format: functional
# [10] = tested on: H4; assay: Luminescence Cell-Based Dose Response HTS to Identify Activators of 5'UTR Stem-Loop Driven Prion Protein mRNA Translation in H4 Neuroglioblastoma Cells. [Related pubchem assays: 1829 (Project Summary), 1814 (Primary HTS)]; format: functional; conditions: Homo sapiens
# [11] = Trypanosoma cruzi growth suppression in host cells – NIH3T3 host cells, beta-gal luminescence, confirmation (AID 2044); format: functional, cell-based;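 note: intracellular parasites grown in NIH/3T3 mouse fibroblasts as host cells; luminescent beta-galactosidase reporter signal from transgenic T. cruzi replicating inside host cells; inhibitors lower the luminescence signal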
# [12] = NIH3T3 cell viability loss – ATP luminescence, mouse fibroblasts, counter-screen, dose response (AID 2010); format: functional, cell-based;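 note: cells exposed to compound for about 90 hours before reading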
# [13] = molecular target: CAAX prenyl protease 2 (Saccharomyces cerevisiae S288c, UniProt Q03530); format: biochemical
# [14] = molecular target: T3, Voltage-dependent T-type calcium channel subunit alpha-1H (Homo sapiens, UniProt O95180); format: functional
# [15] = molecular target: T3, Voltage-dependent T-type calcium channel subunit alpha-1H; assay: Inhibitors of T-Type Calcium Channels. [Related pubchem assays (depositor defined):AID449739, AID463087, AID489005, AID493041, AID504579, AID504584, AID504619, AID504628]; format: functional
# [16] = molecular target: Large T antigen (Simian virus 40, UniProt P03070); format: functional, Betapolyomavirus macacae;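 note: Confirmatory-stage PubChem screen for compounds that inhibit SV40 T antigen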
# [17] = molecular target: C-C chemokine receptor type 6 (Homo sapiens, UniProt P51684); assay: antagonism of CCR6 beta-arrestin recruitment – cell-based, luminescent beta-arrestin readout, dose response (AID 504728); format: functional
# [18] = molecular target: Bcl-2-related protein A1 (Mus musculus, UniProt Q07440); format: functional;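 note: confirmatory dose–response counterscreen on Bfl-1, used to check hits from a UBC13 polyubiquitin inhibitor campaign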
# [19] = molecular target: T4, Ubiquitin-conjugating enzyme E2 N (Homo sapiens, UniProt P61088); format: functional
# T4 sequence (P61088 whole entry): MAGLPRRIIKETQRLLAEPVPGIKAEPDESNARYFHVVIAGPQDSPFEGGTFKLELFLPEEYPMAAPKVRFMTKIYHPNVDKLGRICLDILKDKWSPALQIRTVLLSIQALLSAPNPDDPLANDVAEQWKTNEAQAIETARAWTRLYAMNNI
# [20] = molecular target: Beta-galactosidase (Escherichia coli, UniProt Q8VNN2); assay: detection-enzyme interference by beta-gal modulators – biochemical, E. coli enzyme, set 3, artefact control for CCR6 antagonist project, dose response (AID 504712); format: functional
# [21] = molecular target: T4, Ubiquitin-conjugating enzyme E2 N; format: functional; remark: listed apart in the source
# [22] = molecular target: T5, Hexokinase HKDC1 (Homo sapiens, UniProt Q2TB90); assay: inhibition of HKDC1 glucose phosphorylation – biochemical, W721R variant, dose response (AID 504729); format: functional
# T5 sequence (Q2TB90 whole entry): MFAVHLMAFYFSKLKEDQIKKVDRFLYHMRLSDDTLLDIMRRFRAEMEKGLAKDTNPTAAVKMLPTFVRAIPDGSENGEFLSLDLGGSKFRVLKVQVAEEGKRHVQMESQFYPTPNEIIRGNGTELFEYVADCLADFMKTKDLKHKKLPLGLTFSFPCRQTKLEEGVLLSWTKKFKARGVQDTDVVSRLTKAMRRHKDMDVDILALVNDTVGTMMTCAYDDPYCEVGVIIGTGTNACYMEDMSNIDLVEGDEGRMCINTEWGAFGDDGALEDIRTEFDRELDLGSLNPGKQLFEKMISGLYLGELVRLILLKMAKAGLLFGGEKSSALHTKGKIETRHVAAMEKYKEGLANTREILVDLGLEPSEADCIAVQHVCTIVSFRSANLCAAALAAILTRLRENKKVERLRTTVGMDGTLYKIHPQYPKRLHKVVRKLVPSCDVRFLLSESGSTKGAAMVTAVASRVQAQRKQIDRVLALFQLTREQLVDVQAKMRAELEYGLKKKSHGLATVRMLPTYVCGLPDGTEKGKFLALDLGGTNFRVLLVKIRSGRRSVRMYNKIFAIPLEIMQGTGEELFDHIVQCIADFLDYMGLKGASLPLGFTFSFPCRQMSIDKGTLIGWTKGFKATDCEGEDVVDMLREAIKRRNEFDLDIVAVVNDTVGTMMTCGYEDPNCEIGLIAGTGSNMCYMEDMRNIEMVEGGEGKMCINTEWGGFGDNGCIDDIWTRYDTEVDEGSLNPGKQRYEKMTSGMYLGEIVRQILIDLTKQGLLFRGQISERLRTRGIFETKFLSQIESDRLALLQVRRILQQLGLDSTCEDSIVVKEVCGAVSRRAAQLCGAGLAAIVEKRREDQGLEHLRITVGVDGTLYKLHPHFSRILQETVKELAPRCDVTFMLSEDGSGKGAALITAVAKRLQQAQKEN
# [23] = molecular target: Cysteine protease ATG4B (Homo sapiens, UniProt Q9Y4P1); format: functional;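 note: Fluorescence-based dose-response confirmation assay measuring inhibition of ATG4B activity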
# [24] = molecular target: Heat shock protein HSP 90-alpha (Homo sapiens, UniProt P07900); format: functional, organism-based
# [25] = molecular target: Phospholipase A2 (Homo sapiens, UniProt P04054); format: functional;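 note: confirmatory dose-response counterscreen on phospholipase A2, testing hits that came from an ultra-high-throughput screen for ATG4B inhibitors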
# [26] = molecular target: T6, Cytochrome P450 3A4 (Homo sapiens, UniProt P08684); conditions: Potency;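 note: confirmatory qHTS run detecting inhibitors and substrates of CYP3A4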
# [27] = molecular target: T6, Cytochrome P450 3A4; conditions: read-out: Potency
# T3 sequence (O95180 whole entry): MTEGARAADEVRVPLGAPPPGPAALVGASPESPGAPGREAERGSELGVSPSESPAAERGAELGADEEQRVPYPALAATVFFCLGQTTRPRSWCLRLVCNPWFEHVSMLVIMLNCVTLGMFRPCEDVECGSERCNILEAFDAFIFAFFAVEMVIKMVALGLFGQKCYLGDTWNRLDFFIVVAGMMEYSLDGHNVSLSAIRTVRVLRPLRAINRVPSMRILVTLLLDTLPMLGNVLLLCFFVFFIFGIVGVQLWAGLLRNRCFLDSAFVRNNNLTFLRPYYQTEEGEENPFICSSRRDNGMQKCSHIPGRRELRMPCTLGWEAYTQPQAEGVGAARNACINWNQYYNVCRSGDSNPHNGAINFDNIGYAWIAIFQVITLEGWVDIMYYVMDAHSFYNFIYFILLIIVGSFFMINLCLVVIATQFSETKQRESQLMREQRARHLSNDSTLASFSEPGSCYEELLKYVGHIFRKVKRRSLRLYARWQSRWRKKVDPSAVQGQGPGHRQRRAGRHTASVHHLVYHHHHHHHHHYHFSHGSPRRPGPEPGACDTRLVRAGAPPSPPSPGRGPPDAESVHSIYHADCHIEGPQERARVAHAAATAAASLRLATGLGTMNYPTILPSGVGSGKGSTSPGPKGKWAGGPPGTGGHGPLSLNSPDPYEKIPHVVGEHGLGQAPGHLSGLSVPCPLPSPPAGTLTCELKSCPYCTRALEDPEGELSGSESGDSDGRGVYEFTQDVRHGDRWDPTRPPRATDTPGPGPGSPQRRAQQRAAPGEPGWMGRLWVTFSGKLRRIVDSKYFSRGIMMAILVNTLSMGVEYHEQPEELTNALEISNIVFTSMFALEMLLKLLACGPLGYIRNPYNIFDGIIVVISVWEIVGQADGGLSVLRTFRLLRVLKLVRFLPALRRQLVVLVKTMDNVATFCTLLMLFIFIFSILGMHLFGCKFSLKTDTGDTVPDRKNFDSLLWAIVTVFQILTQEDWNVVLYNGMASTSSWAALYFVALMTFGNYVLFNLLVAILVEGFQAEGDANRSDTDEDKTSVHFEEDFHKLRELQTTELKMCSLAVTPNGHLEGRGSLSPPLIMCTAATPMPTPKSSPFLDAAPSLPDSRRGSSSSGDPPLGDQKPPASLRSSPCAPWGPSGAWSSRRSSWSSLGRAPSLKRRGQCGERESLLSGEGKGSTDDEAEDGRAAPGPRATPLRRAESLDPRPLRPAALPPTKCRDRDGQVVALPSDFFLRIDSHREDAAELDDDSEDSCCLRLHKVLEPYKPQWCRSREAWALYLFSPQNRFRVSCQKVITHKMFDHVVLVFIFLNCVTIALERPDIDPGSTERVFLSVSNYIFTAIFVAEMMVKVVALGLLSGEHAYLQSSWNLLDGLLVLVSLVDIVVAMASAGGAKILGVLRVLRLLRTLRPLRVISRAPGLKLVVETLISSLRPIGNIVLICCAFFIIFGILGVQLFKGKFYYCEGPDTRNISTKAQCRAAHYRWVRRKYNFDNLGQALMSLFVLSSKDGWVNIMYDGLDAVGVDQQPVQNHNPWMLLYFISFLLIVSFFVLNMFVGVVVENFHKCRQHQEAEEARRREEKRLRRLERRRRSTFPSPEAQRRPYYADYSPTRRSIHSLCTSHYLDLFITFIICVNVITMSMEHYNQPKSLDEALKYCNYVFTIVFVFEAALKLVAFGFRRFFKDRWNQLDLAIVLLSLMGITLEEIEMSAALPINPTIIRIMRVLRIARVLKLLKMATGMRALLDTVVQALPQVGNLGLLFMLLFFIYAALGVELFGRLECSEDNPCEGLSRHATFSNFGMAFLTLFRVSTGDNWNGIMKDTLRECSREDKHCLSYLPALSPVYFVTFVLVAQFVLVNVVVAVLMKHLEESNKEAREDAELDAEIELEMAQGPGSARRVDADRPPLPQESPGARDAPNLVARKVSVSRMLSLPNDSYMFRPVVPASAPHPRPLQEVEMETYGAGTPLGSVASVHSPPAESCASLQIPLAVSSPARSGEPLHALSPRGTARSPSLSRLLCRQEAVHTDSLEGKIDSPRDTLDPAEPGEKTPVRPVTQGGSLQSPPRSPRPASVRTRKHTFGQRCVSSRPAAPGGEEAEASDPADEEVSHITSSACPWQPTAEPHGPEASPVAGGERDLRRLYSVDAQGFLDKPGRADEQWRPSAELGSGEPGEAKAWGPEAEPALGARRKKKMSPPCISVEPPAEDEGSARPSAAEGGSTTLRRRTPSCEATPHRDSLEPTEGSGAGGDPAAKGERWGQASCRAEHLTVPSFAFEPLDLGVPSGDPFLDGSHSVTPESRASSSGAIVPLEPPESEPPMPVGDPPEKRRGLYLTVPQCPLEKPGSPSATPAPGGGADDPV
# T6 sequence (P08684 whole entry): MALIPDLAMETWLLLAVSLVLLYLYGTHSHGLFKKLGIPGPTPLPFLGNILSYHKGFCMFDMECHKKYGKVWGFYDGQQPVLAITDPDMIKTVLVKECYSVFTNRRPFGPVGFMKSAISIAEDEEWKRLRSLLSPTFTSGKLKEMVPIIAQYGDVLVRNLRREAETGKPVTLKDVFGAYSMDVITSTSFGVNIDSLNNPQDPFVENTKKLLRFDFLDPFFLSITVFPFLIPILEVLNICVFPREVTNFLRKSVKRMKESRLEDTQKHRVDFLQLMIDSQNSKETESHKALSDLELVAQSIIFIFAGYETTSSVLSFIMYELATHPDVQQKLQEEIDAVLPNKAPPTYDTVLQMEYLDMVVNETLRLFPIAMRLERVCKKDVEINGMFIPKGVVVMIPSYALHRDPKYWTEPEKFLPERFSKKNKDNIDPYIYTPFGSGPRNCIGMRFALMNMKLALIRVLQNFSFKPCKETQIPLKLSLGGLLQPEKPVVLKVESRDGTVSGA
# Sequence of C-C chemokine receptor type 6 (P51684 whole entry): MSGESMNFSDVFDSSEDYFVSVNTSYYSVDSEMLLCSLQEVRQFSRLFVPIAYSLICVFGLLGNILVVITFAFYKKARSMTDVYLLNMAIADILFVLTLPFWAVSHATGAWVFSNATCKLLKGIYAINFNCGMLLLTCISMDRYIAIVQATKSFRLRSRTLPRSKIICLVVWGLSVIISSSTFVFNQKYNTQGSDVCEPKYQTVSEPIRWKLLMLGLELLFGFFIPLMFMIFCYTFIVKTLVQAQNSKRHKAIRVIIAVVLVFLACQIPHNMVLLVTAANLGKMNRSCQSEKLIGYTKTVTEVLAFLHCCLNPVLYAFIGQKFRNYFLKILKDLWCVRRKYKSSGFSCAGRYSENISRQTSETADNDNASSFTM
# Sequence of Bcl-2-related protein A1 (Q07440 whole entry): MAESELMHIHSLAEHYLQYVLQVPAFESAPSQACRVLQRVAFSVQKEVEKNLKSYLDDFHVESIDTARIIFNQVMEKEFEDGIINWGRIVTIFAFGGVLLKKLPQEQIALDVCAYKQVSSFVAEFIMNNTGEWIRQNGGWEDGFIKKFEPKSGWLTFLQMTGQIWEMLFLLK
# Sequence of CAAX prenyl protease 2 (Q03530 whole entry): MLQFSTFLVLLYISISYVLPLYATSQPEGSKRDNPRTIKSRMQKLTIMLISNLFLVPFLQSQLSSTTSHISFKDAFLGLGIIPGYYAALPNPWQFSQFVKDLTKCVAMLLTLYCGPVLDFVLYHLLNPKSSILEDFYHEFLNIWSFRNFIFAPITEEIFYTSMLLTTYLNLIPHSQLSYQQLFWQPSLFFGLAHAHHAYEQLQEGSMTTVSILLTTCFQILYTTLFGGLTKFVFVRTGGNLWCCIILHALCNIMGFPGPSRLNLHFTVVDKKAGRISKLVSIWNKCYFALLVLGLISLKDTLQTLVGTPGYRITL
# Sequence of Glyceraldehyde-3-phosphate dehydrogenase (P04406 whole entry): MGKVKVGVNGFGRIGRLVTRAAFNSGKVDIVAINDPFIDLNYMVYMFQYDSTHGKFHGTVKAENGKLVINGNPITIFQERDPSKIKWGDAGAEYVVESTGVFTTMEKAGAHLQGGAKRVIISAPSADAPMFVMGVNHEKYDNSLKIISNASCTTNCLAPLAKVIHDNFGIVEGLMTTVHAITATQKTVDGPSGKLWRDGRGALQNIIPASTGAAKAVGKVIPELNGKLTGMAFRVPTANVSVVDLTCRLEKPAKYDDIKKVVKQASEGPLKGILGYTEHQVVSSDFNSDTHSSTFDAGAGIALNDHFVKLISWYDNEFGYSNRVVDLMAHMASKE
# Sequence of Large T antigen (P03070 whole entry): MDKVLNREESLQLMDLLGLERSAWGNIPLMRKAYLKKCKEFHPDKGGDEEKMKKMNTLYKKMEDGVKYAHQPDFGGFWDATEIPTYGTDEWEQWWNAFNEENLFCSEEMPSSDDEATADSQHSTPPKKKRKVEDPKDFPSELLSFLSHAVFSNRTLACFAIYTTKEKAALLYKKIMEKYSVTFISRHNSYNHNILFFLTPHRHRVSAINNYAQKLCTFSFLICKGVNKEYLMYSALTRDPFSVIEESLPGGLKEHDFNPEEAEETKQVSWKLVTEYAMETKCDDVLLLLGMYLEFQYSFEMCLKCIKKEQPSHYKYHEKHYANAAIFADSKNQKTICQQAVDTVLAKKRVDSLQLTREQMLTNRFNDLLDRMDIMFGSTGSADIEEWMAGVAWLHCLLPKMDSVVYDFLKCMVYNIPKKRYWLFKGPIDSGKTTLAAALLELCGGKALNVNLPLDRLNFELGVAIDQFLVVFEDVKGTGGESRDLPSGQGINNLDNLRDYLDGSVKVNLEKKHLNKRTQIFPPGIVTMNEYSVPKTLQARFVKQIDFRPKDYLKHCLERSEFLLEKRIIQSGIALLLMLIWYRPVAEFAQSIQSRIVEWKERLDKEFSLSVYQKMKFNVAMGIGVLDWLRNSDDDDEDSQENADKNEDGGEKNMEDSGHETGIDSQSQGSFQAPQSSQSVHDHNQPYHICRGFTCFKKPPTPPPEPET
# Sequence of Phospholipase A2 (P04054 whole entry): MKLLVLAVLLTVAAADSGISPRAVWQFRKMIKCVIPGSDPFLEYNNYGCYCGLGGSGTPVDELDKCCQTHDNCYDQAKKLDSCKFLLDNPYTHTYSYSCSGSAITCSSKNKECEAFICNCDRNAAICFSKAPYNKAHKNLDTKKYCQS
compound,measurement,setting,value
Cc1ccc(NCc2ccc([N+](=O)[O-])s2)cc1,AC50,[1],> 195 µM (inactive)
same,IC50,[2],> 100 µM (inactive)
O=C(CCn1sc2ccccc2c1=O)Nc1ccccc1,IC50,[3],19.8 µM (active)
CCOC(=O)C1Nc2c(O)cccc2C2C=CCC12 (configuration not stated),IC50,[4],> 100 µM (not active)
same,IC50,[5],> 100 µM (not active)
same,IC50,[6],> 100 µM (inactive)
same,IC50,[7],> 100 µM (inactive)
Cc1ccc2c(c1)sc[n+]2Cc1ccccc1,EC50,[8],11.9 µM (active)
same,EC50,[9],46.1 µM (active)
same,EC50,[10],68.9 µM (inconclusive)
same,EC50,[11],1.87 µM (active)
same,EC50,[12],> 60 µM (not active)
same,AC50,[13],18.6 µM (active)
Cc1cccc(NC(=O)C23CCC(C)(C2Br)C3(C)C)c1 (configuration not stated),EC50,[14],2.64 µM (active)
same,EC50,[15],5.25 µM (active)
CCCCC(CC)CNC(=N)NC(=N)NCCCCCCNC(=N)NC(=N)NCC(CC)CCCC (configuration not stated) [ALEXIDINE HYDROCHLORIDE],IC50,[16],29.1 µM (active)
same,IC50,[17],25.9 µM (inactive)
same,IC50,[18],5.95 µM (active)
same,IC50,[19],1.98 µM (active)
same,IC50,[20],> 66.6 µM (inactive)
same,IC50,[21],1.73 µM (active)
same,IC50,[22],14.2 µM (active)
same,IC50,[23],3.89 µM (active)
same,AC50,[24],4.05 µM (active)
same,IC50,[25],9.51 µM (active)
O=c1cccc2n1C[C@H]1CNC[C@H]2C1,AC50,[26],31.6 µM (inconclusive)
same,AC50,[27],31.6 µM (inconclusive)
